This note sets out measurements from PubChem BioAssay AID1963437 (Molecular Pharmacology Branch, DTP, NCI, 2024).

Several values for one entry are separate records, joined by “and”; a condition that tells them apart may be missing. Equal entries are not always repeated. Bounds are passed on as bounds.

The test system of the assay is OVCAR-8 complex spheroid, growth inhibition. The assay is described as follows: Anticancer human tumor OVCAR-8 cell line growth inhibition [Asc].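 For all read-outs here: spheroids exposed to agents for 7 days before readout.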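 For viability, T/C: percent viability relative to DMSO vehicle wells taken as 100%.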 Particulars: for viability, T/C: stronger effect = lower value. The protocol: Multicellular complex tumor spheroid response to apoptosis pathway targeting inhibitors Alrizomadlin, Pelcitoclax, and Dasminapant in combination with a variety of drugs and investigational agents in selected tumor cell lines
The MDM2 inhibitor alrizomadlin, the Bcl-2/Bcl-xL inhibitor pelcitoclax, and the IAPs inhibitor dasminapant were evaluated both individually and in combination with standard of care and investigational anticancer small molecules within a complex spheroid model of solid tumors. . Complex spheroids include a stromal component modeled by human endothelial cells (HUVEC) and fibroblasts modeled by human mesenchymal stem cells (MSCs). The concentration ranges selected for each drug and investigational agent were based upon clinically achievable concentrations if the clinical Cmax of the agent was known.
Compounds. The drugs and investigational agents: alrizomadlin (APG-115; NSC831270), pelcitoclax (APG-1252; NSC835773), dasminapant (APG-1387;NSC834197), TAK-243 (NSC785004), copanlisib (NSC809693), olaparib (NSC753686), talazoparib (NSC767125), cobimetinib (NSC 768068), eltanexor (KPT-8602, NSC 794443), abemaciclib (NSC 768073), sotorasib (NSC818433), adagrasib (NSC 831453), MRTX-1133 (NSC 836407), Iadademestat (ORY1001, NSC 806812), and RMC-4630 (NSC839698), were obtained from the NCI Developmental Therapeutics Program Chemical Repository. The FDA-approved anticancer drug set is available from the Developmental Therapeutics Program at https://dtp.cancer.gov/organization/dscb/obtaining/available plates.htm. […] The stock solutions were prepared in dimethyl sulfoxide (DMSO, Sigma-Aldrich, St. Louis, MO, cat. D2650) at 800-fold the tested concentration and stored at -70 degrees C prior to their use. All drugs and investigational agents were tested over a range starting from a high concentration at or near the clinical Cmax and decreasing in half-log increments. If the clinical Cmax for an agent had not been determined, the highest concentration tested was 10 microM.
The patient-derived cancer (PDC) cell lines include five colon adenocarcinomas: 186277-243-T-J2-PDC, 616215-338-R-J1-PDC, 439559-082-T-J2-PDC, 463943-066-T-J2-PDC, and 519858-162-T-J1-PDC; three pancreatic carcinomas: 323965-272-R-J2-PDC, 521955-158-R6-J3-PDC, and 521955-158-R2-J5-PDC; two uterine sarcomas: 327498-152-R-J2-PDC and 993429-296-R-J1-PDC; two rhabdomyosarcomas: 755483-174-R-J1-PDC and 772245-204-R-J1-PDC; two soft tissue sarcomas: 126254-015-R-J1-PDC and 494315-158-R-J1-PDC; two malignant fibrous histiocytomas: 317291-083-R-J1-PDC and 596521-263-R-J1-PDC; two breast carcinomas: 171881-019-R-J1-PDC and 885512-296-R-J2-PDC; and one ovarian carcinoma: 6556581-035-R-J-PDC were obtained from the NCI PDMR, (https://pdmr.cancer.gov). The established cell lines HSSY-2 synovial sarcoma (RRID:CVCL 8719), SYO-1 synovial sarcoma (RRID:CVCL_7146), MPNST malignant peripheral neural sheath tumor were obtained from the Sloan Kettering Institute. The following established cell lines were purchased from the American Type Culture Collection (ATCC, Manassas, VA), Sor the received from the NCI repository:, PANC-1 pancreatic carcinoma (CRL-1469, RRID:CVCL_0480), OVCAR-5 ovarian carcinoma (RRID:CVCL_1628), OVCAR-8 ovarian carcinoma (RRID:CVCL_1629), , MCF-7 breast carcinoma (CRL-12584, RRID:CVCL_0031), MDA-MB-231 breast carcinoma (CRL-12532, RRID:CVCL_0062), NCI-H1876 small cell lung carcinoma (CRL-5902, RRID:CVCL_1503), NCI-H510A small cell lung carcinoma (HTB-184, RRID:CVCL_1565), NCI-H1417 (CRL-5869, RRID:CVCL_1469), and NCI-H196 small cell lung carcinoma (CRL-5823, RRID:CVCL_1509). Dr. Peter Houghton (Greehey Children's Cancer Research Institute, University of Texas Health Science Center, San Antonio, TX) provided Rh-18 rhabdomyosarcoma (RRID:CVCL_1659). Pooled donor human umbilical vein endothelial cells (HUVEC, Lonza, cat. CC-2519) and human mesenchymal stem cells (hMSC, Lonza, cat. PT-2501) were purchased from Lonza (Walkersville, MD).
Cell Culture. […]

Where [1] appears, read: compound alone, run of 11/07/2022.

Regarding `C#Cc1c(F)ccc2cc(O)cc(-c3ncc4c(N5CC6CCC(C5)N6)nc(OCC56CCCN5CC(F)C6)nc4c3F)c12` (stereo unspecified), the viability, T/C (as a rule, the ratio of treated to control) runs as follows: (compound 0.0316 µM) 110% and 90.4% and 96.5%; (compound 0.1 µM) 95.6% and 80.1% and 97.5%; (compound 0.316 µM) 101% and 110% and 87%; (compound 1 µM) 110% and 94.2% and 95%; (compound 3.16 µM) 93.7% and 83.9% and 94.7%; (compound 10 µM) 116% and 98.9% and 85.9%. The IC50 (commonly the concentration that gives 50% inhibition) (curve of compound) was more than 10 µM.

In the case of `C=C(F)C(=O)N1CCN(c2nc(OCC3CCCN3C)nc3c2CCN(c2cccc4cccc(Cl)c24)C3)CC1CC#N` (stereo unspecified), the viability, T/C by setting is: (compound 0.0316 µM) 107% (2×) and 96.3%; (compound 0.1 µM) 113% and 98.5% and 93.6%; (compound 0.316 µM) 109% and 84.2% and 106%; (compound 1 µM) 101% and 105% and 104%; (compound 3.16 µM) 25.7% and 39.4% and 37.9%; (compound 10 µM) 0.33% and 0.7% and 1.79%. In addition, for the setting “curve of compound”, the IC50 was 2.19 µM and 2.55 µM and 2.56 µM.

`C=CC(=O)N1CCN(c2nc(=O)n(-c3c(C)ccnc3C(C)C)c3nc(-c4c(O)cccc4F)c(F)cc23)C(C)C1` (stereo unspecified): the viability, T/C (compound 0.0316 µM) was 106% and 97.9% and 94.2%; the viability, T/C (compound 0.1 µM) was 102% and 109% and 80.9%; the viability, T/C (compound 0.316 µM) was 84.7% and 95.3% and 101%; the viability, T/C (compound 1 µM) is 98.6% and 95.9% and 99.3%; the viability, T/C (compound 3.16 µM) is 86.1% and 102% and 101%; the viability, T/C (compound 10 µM) was 108% and 99.7% and 96.6%. Further, the IC50 (curve of compound) is more than 10 µM.

`CCN1C(C(=O)NC23CCC(C(=O)O)(CC2)CC3)C(c2cccc(Cl)c2F)C2(C(=O)Nc3cc(Cl)ccc32)C12CCCCC2` (stereo unspecified): the viability, T/C runs as follows: (compound 0.03 µM) 93.4% [middle of 9 runs]; (compound 0.949 µM) 100% [middle of 9 runs]; (compound 3 µM) 104% [middle of 9 runs]. Moreover, the IC50 by setting is: under setting [1], more than 3 µM; (curve of compound) more than 3 µM.

For `CCN1CCN(Cc2ccc(Nc3ncc(F)c(-c4cc(F)c5nc(C)n(C(C)C)c5c4)n3)nc2)CC1`, the viability, T/C reads like this: (compound 0.00316 µM) 81.5% and 87.7% and 87.9%; (compound 0.01 µM) 101% and 93.5% and 90.3%; (compound 0.0316 µM) 93.1% and 93.5% and 107%; (compound 0.1 µM) 104% and 84.9% and 103%; (compound 0.316 µM) 98.6% and 100% and 98.5%; (compound 1 µM) 125% and 105% and 129%. Also, the IC50 (curve of compound) is more than 1 µM.

Turning to `CNC(C)C(=O)NC1CN(S(=O)(=O)c2cccc(S(=O)(=O)N3CCC4CCC(C(=O)NC(c5ccccc5)c5ccccc5)N4C(=O)C(NC(=O)C(C)NC)C3)c2)CCC2CCC(C(=O)NC(c3ccccc3)c3ccccc3)N2C1=O` (stereo unspecified), under “curve of compound”, the IC50 was more than 1 µM.

On to `COc1c(OCCCN2CCOCC2)ccc2c3n(c(=NC(=O)c4cnc(N)nc4)nc12)CCN3`, for which the viability, T/C (compound 0.00316 µM) is 98.2% and 94.8% and 108%; the viability, T/C (compound 0.01 µM) was 111% and 110% and 109%; the viability, T/C (compound 0.0316 µM) is 120% and 123% and 130%; the viability, T/C (compound 0.1 µM) is 167% and 133% and 157%; the viability, T/C (compound 0.316 µM) was 134% and 141% and 143%; the viability, T/C (compound 1 µM) was 77% and 89.5% and 94.5%. Besides, the IC50 (curve of compound) is more than 1 µM.

As for `Cc1c(S(C)(=O)=O)c(-c2cc(F)cc(N3CCN(c4ccc(NS(=O)(=O)c5ccc(NC(CCN6CCC(C(=O)OCCCP(=O)(O)O)CC6)CSc6ccccc6)c(S(=O)(=O)C(F)(F)F)c5)cc4)CC3)c2)c(-c2ccc(Cl)cc2)n1C(C)C` (stereo unspecified), the viability, T/C by setting is: (compound 0.0316 µM) 91.2% [middle of 7 runs]; (compound 0.1 µM) 94% [middle of 7 runs]; (compound 1 µM) 98.1% [middle of 7 runs]; (compound 3.16 µM) 104% [middle of 7 runs]. Further, the IC50 under setting [1] was more than 10 µM.

`Cc1nc(N2CCC3(CC2)COC(C)C3N)c(CO)nc1Sc1ccnc(N)c1Cl` (stereo unspecified): the viability, T/C by setting is: (compound 0.00949 µM) 111% and 101% and 103%; (compound 0.03 µM) 121% and 112% and 102%; (compound 0.0949 µM) 195% and 147% and 149%; (compound 0.3 µM) 239% and 173% and 192%; (compound 0.949 µM) 261% and 212% and 243%; (compound 3 µM) 261% and 201% and 223%. In addition, where the note is “curve of compound”, the IC50 was more than 3 µM.

Regarding `Cn1ncnc1[C@H]1c2n[nH]c(=O)c3cc(F)cc(c23)N[C@@H]1c1ccc(F)cc1`, the viability, T/C is 92.4% and 93.5% and 99.5% (compound 0.000316 µM); 94.9% and 97.8% and 88.9% (compound 0.001 µM); 95.5% and 93.6% and 106% (compound 0.00316 µM); 114% and 102% and 109% (compound 0.01 µM); 115% and 117% and 105% (compound 0.0316 µM); 132% and 102% and 125% (compound 0.1 µM). In addition, the IC50 (curve of compound) was more than 0.1 µM.

`NC(=O)C(=Cn1cnc(-c2cc(C(F)(F)F)cc(C(F)(F)F)c2)n1)c1cncnc1`: the viability, T/C is, setting by setting: (compound 0.000949 µM) 100% and 101% and 69.2%; (compound 0.003 µM) 90% and 81.8% and 98.6%; (compound 0.00949 µM) 99.8% and 91.2% and 111%; (compound 0.03 µM) 95.4% and 109% and 92.8%. Also, the IC50 (curve of compound) was > 0.3 µM and 0.0541 µM.

With `NC1CCC(NC2CC2c2ccccc2)CC1` (stereo unspecified), the viability, T/C (compound 0.000316 µM) was 94.7% and 96.7% and 105%; the viability, T/C (compound 0.001 µM) was 87.7% and 82.6% and 99.8%; the viability, T/C (compound 0.00316 µM) is 83.1% and 85.2% and 104%; the viability, T/C (compound 0.01 µM) was 104% and 81.5% and 119%; the viability, T/C (compound 0.0316 µM) is 113% and 98.7% and 95%; the viability, T/C (compound 0.1 µM) is 83% and 91.6% and 115%. Under “curve of compound”, the IC50 is more than 0.1 µM.

As to `O=C(c1cc(Cc2n[nH]c(=O)c3ccccc23)ccc1F)N1CCN(C(=O)C2CC2)CC1`, the viability, T/C is 105% and 97.4% and 98.4% (compound 0.0316 µM); 103% (2×) and 97.7% (compound 0.1 µM); 99% and 82.4% and 107% (compound 0.316 µM); 117% and 95.4% and 121% (compound 1 µM); 134% and 104% and 110% (compound 3.16 µM); 116% and 122% and 95.5% (compound 10 µM). In addition, the IC50 (curve of compound) is more than 10 µM.

In the case of `O=C(c1ccc(F)c(F)c1Nc1ccc(I)cc1F)N1CC(O)([C@@H]2CCCCN2)C1`, the viability, T/C (compound 0.00316 µM) is 95.4% and 98.1% and 96.1%; the viability, T/C (compound 0.01 µM) is 122% and 101% and 111%; the viability, T/C (compound 0.0316 µM) is 138% and 165% and 133%; the viability, T/C (compound 0.1 µM) was 153% and 165% and 190%; the viability, T/C (compound 0.316 µM) was 210% and 216% and 228%; the viability, T/C (compound 1 µM) is 107% and 80.8% and 86.8%. The IC50 (curve of compound) was more than 1 µM.
